Reference: article PMC12489660, “Multitargeted Caffeic Acid Derivatives Inhibit Cardiac RyR2- and NaV1.5- Channels but Stimulate SERCA2a Pump Activity” (ACS Omega, 2025)
pEC50: −log10 of the molar value. Where “and” joins values, the source holds several entries; their conditions need not be identical. Equal entries are not always repeated.

Columns and labels:
[1] = biological target: T1, wild type mouse RyR2 (Mus musculus, UniProt E9Q401); assay: Time-lapse [Ca2+]ER assay in HEK-293 RyR2 R-CEPIA1er cells (RyR2 activity assay); assay type: cell-based; conditions: 25 μM; for effect on RyR2 activity / [Ca2+]ER (in words): vs control 0.1 v/v% DMSO; for RyR2 activity: percentage from the control sample (100%), mean ± SEM;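 on all read-outs here: ER Ca2+ read as R-CEPIA1er fluorescence ratio F/F0 (F0 mean of initial 90 s, F mean of final 100 s), compared with vehicle-treated control wells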
T1 construct: expressed in transfected cells; host or cells: HEK-293 cells stably expressing WT RyR2 and R-CEPIA1er (gift of Dr. Takashi Murayama), induced with doxycycline
T1 sequence (E9Q401 whole entry): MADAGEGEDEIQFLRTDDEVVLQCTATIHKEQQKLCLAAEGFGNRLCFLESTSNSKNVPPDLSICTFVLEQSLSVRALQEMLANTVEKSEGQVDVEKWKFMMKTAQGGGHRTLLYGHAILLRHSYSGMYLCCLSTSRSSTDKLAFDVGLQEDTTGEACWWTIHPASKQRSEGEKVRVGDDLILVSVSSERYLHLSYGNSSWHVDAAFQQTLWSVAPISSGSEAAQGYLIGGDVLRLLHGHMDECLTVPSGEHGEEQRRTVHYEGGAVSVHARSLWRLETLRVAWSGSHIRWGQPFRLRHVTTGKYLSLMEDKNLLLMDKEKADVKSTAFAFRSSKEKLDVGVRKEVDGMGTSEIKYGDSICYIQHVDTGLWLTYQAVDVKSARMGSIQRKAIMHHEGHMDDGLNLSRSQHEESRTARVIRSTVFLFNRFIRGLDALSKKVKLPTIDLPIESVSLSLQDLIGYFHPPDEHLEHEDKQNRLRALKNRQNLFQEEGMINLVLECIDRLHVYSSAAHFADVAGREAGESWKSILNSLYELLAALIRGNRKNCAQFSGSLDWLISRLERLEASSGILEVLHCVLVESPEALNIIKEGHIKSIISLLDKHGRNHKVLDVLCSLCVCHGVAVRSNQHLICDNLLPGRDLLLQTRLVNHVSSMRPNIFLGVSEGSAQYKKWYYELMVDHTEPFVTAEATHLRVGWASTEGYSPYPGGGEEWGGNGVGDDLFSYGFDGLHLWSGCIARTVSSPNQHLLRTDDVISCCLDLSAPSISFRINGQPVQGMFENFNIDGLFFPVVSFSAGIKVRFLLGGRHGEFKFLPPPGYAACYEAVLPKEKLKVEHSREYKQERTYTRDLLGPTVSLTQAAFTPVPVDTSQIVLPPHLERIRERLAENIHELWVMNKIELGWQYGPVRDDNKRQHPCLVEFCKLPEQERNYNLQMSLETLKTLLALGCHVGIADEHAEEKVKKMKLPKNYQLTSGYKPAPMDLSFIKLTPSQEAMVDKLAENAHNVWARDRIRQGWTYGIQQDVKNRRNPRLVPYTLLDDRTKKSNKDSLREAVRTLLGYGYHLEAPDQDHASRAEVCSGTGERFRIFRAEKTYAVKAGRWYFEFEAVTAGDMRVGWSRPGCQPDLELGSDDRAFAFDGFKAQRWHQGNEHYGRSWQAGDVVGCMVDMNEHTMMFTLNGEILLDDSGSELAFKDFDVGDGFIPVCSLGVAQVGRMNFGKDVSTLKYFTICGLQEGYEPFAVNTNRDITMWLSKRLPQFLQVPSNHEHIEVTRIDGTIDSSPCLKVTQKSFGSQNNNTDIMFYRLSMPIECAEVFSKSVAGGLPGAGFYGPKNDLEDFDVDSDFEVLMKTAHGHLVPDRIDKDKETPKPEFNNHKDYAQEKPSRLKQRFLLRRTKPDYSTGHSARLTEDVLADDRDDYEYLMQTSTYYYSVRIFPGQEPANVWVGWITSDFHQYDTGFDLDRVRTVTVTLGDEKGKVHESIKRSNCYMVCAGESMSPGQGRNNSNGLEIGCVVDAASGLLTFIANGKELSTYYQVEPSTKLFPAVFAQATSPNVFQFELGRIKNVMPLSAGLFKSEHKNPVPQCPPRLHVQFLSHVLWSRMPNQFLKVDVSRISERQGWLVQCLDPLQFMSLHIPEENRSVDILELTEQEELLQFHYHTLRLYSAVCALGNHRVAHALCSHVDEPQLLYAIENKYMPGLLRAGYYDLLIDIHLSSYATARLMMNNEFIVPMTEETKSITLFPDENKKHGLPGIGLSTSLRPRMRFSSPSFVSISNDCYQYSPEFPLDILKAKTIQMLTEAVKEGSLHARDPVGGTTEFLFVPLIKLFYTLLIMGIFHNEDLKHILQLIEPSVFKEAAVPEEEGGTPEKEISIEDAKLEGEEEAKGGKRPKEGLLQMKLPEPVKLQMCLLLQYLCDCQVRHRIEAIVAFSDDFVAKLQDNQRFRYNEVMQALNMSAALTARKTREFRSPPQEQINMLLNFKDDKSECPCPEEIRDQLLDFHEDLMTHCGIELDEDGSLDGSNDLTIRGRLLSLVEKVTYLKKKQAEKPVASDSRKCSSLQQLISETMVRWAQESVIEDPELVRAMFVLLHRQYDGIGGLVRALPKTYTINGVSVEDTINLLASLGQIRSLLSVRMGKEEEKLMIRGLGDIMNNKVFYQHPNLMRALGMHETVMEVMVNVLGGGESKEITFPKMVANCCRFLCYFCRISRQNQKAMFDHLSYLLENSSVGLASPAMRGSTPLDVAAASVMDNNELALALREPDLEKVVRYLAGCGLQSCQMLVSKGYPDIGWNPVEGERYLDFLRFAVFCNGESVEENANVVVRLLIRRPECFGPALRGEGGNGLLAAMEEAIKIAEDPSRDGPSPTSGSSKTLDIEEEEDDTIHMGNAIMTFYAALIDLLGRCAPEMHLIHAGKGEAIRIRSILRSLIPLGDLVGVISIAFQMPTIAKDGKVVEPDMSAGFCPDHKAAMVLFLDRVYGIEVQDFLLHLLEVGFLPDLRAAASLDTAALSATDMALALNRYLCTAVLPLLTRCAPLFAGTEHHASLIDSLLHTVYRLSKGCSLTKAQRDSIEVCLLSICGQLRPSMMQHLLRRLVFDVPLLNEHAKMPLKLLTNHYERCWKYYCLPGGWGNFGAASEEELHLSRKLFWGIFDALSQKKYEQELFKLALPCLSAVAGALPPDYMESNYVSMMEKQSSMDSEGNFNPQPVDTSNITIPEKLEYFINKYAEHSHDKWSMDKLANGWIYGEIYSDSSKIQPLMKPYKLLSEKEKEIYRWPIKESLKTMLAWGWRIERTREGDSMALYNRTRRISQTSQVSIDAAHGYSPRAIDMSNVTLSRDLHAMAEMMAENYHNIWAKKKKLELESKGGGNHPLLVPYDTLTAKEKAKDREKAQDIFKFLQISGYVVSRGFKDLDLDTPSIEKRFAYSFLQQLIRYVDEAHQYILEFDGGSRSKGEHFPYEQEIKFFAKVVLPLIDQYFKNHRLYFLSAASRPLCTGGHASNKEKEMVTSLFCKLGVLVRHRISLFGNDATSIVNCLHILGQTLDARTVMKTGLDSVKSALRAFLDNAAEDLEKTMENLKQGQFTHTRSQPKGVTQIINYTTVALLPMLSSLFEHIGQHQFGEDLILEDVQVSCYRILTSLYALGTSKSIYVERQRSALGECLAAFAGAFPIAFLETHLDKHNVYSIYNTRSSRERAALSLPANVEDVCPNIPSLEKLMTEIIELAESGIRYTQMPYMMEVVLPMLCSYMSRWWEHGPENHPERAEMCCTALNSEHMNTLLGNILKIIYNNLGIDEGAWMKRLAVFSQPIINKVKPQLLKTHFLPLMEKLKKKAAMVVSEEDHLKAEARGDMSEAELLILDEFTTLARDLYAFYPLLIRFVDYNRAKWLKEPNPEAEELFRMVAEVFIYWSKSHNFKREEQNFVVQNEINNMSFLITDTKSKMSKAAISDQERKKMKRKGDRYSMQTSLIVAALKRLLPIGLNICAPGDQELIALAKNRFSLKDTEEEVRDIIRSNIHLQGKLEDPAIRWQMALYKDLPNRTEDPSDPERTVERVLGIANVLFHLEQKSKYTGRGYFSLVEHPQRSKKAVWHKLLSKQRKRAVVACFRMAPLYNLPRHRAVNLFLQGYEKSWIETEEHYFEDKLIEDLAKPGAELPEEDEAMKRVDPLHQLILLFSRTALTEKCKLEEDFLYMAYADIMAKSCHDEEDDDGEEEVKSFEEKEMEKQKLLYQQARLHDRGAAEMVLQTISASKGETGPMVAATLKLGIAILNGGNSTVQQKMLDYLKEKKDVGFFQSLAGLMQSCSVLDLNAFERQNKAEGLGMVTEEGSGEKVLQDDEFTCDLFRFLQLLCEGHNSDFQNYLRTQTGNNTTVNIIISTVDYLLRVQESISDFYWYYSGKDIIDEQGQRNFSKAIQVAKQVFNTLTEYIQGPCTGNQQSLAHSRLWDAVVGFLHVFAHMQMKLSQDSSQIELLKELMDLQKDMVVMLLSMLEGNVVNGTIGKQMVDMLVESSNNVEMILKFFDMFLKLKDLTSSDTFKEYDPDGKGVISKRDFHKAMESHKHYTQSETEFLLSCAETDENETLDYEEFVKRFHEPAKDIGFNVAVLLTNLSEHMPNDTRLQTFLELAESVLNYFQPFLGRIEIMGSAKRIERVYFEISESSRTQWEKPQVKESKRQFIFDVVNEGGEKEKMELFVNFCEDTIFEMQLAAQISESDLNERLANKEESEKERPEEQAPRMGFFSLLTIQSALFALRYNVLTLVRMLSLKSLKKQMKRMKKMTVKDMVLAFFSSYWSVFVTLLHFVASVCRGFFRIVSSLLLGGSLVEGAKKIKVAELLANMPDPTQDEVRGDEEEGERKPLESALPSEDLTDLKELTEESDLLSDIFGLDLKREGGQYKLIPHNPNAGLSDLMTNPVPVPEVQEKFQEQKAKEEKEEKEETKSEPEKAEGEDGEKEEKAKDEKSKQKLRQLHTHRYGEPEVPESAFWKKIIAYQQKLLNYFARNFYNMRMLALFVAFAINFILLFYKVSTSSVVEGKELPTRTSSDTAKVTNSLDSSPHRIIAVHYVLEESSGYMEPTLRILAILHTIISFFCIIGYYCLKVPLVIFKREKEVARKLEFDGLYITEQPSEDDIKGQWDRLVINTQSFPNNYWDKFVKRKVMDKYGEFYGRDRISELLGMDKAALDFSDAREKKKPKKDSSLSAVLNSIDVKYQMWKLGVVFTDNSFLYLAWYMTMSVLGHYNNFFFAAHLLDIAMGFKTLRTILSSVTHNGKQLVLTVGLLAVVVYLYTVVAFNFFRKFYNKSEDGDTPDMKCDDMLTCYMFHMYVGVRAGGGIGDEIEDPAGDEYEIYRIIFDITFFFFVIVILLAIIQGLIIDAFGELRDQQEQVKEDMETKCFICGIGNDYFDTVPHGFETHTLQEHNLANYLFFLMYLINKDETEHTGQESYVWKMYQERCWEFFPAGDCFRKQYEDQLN

[2] = biological target: T2, SERCA2a (Mus musculus, UniProt O55143); assay: NADH-coupled ATPase assay on microsomal membrane vesicles from mouse heart ventricles (mouse SER); assay type: biochemical; conditions: for effect on SERCA2a ATPase activity (in words) / ATPase activity of SERCA2a in mouse SER: 10 μM; for effect on SERCA2a ATPase activity (in words): mouse SER; for ATPase activity of SERCA2a in mouse SER: percentage from the control sample (100%), mean ± SEM
T2 construct: from tissue; host or cells: adult mouse heart ventricles, microsomal membrane vesicles
Protocol: To this end, we tracked the rate of nicotinamide adenine dinucleotide (NADH) oxidation linked to ATP hydrolysis by observing changes in NADH fluorescence over time. This was done after addition of ATP to solutions containing microsomal membranes enriched with SER vesicles isolated from adult mouse heart ventricles (mouse SER). The NADH fluorescence decrease was recorded on a FlexStation 3 Multimode Microplate Reader. […] We detected the highest increase in ATPase activity (up to 118%), when the vesicles were treated with borate complex 11–13 (Table ). We tested compounds 11–13 in the NADH assay buffer to see whether these compounds could contribute to the rate of NADH fluorescence reduction (Figures S7–S9). No significant deviations were found in the rate of NADH consumption compared to the control sample (0.1 v/v% DMSO).
Isolation of Microsomal Membrane Vesicles from mouse hearts was done according to procedure described earlier. All animal procedures were performed in accordance with national and institutional regulations.
Mouse ventricular microsomes (4–5 μg of total protein) were diluted in 100 μL of the assay buffer used for measurement of SERCA activity (described below) and incubated at room temperature for 10 min prior to the experiments. The measurements of SERCA2 activity were made at 25 °C by using a NADH -coupled ATPase assay as described in Radnai et al. with slight modifications. Briefly, the assay buffer contained 60 mM MOPS, 120 mM KCl, 6 mM MgCl2, 1 mM EGTA, 5 mM NaN3, 0.5 mM phosphoenolpyruvate and 0.67 mM CaCl2, pH 7.0. Before the reaction was started by the injection of 10 μL ATP (resulting in 2 mM final concentration in the well), 5 units/mL of both lactate dehydrogenase and pyruvate kinase, 0.5 mM NADH, and 1 μM Ca^2+ ionophore A-23187 (Sigma, C-7522) were added to the diluted sample with or without the tested compound (volume −150 μL). […] The NADH fluorescence decrease was recorded each 2 s for 5 min course on a FlexStation 3 Multi-Mode Microplate Reader in 96-well glass bottom plates (MatTek Corporation; Cat. No. PBK96G-1.5-5-F). Fluorescence was evoked by 380 nm excitation wavelength and collected in a bottom-read mode at 425 nm, cutoff–470 nm, 4 flashes per read. ATP was injected at 60 s, speed–125 μL/s, pipet height–140 μL. The data were analyzed with computer software GraphPad Prism version 8.3.1 (GraphPad Software, Inc.). The difference in signal decrease with and without microsomes was taken as an indicator for the additional ATPase activity performed by SERCA2. The obtained values for maximal SERCA2 activity were normalized for total protein concentration. Maximal SERCA2 activity values are reported as percentages of control (0.1% DMSO) values. Microsomal samples that were kept on ice until usage and set to 100%.

[3] = biological target: human NaV1.5 (Homo sapiens, UniProt Q14524); assay: FLIPR membrane potential assay on CHO NaV1.5 Duo cells (veratridine-induced); assay type: cell-based; conditions: for NaV1.5 activity in CHO cells: 10 μM, percentage from the control sample (100%), mean ± SEM; for effect on NaV1.5 activity (in words): concentration range 0.1 to 100 μM
[4] = biological target: SERCA2 (Mus musculus, UniProt O55143); assay: Caffeine induced calcium release assay on live HL-1 cardiomyocytes; assay type: cell-based; conditions: for EC50: 2 h preincubation, 10 mM caffeine, read-out: activation of SERCA2 in HL-1, EC50 (converted); for activation of SERCA2 in HL-1: 10 μM, percentage from the control sample (100%), mean ± SEM;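 on all read-outs here: Read-out: caffeine-evoked peak minus basal fluorescence (ΔF Caff) of cytoplasmic FLIPR Calcium 6 dye, recorded for 1 min, compared with Tyrode's solution plus 0.1 v/v% DMSO as control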
[5] = PermeaPad membrane permeability; assay type: in vitro ADME; conditions: not told, room temperature, class low/medium in parentheses, read-out: P e (permeability rate)
From the text: We determined permeability rates (P e ), which are a measure of how fast a compound can cross a membrane, using cell-free transport models (PermeaPad, innoME GmbH) The CA derivatives have medium to low permeability rates in the range 1.0–24.0 nm/s (Table ). Similar to S36, despite poor permeability, compounds 2–4, 8, and 9 acted on live RyR2-HEK-293 R-CEPIA1er cells inhibiting RyR2. […] Since PermeaPad is an artificial model that primarily reflects passive diffusion, it is likely that additional mechanisms contribute to the crossing of cell membranes by these compounds.
Membrane permeability was assessed using PermeaPad Plate according to the manufacturing procedure (innoME GmbH, Espelkamp, Germany). Briefly, 200 μL (V A) water was added into acceptor plate. 200 μL (V D) of 100–500 μM test compound in water was added directly to the well membranes of the donor plate. The donor plate contains a biomimetic membrane for simulating passive mass transfer through different barriers in the body. Then the donor plate was placed into the acceptor plate wells and incubated at room temperature for 24 h in dark. To determine peak absorbance of test compounds, absorbance spectra of acceptor solutions and initial solutions for each test compound were read out. The Permeability Rate (P e) was calculated using the formula:
P e = C × −ln (1 – ODA/ODB) cm/s, where OD A is the absorbance of acceptor solution, OD B is the absorbance of the standard solution; if the compound is able to permeabilize the membrane and fully reach equilibrium, 250 μM will be the final concentration of solution in the donor and acceptor wells. The coefficient C was calculated using the formula: C=VD×VA/(VD+VA)×Area×time where V A–acceptor volume (cm^3), V D–donor volume (cm^3), membrane area 0.24 cm^2, time is 86,400 s.

Structure (SMILES) | effect on RyR2 activity / [Ca2+]ER (in words) [1] | RyR2 activity [1] | effect on SERCA2a ATPase activity (in words) [2] | ATPase activity of SERCA2a in mouse SER [2] | NaV1.5 activity in CHO cells [3] | effect on NaV1.5 activity (in words) [3] | EC50 ([4]; HL-1 cells) | effect on NaV1.5 (in words) ([3]; 100 μM) | Papp at 24 h [5] | activation of SERCA2 in HL-1 [4] | effect on NaV1.5 (in words) ([3]; 1 μM) | effect on NaV1.5 (in words) ([3]; 10–100 μM) | effect in caffeine-induced Ca2+ release assay relative to CDN1163 ([4]; HL-1 cardiomyocytes) | increase in the signaling response to caffeine stimulation compared to the control sample ([4]; HL-1 cells, maximal effect of the dose-response) | pEC50 ([2]; kinetic rate of NADH–NAD+ conversion, Figure S10: 200 µM free Ca2+) | concentration of maximal inhibition ([3]; positive control)
O=C(O)C=Cc1ccc(O)c(O)c1 [CA, 3-(3,4-dihydroxyphenyl)-2-propenoic acid, reference compound] | did not affect the RyR2 activity | 100.9 ± 0.8% | accelerated consumption of NADH | 108.5 ± 2.5% | 91.8 ± 2.4% | no effect on NaV1.5 activity |  |  |  |  |  |  |  |  |  | 
Cc1ccc2cccc(NC(=O)c3ccc(OC(C)C)cc3)c2n1 [CDN1163, reference compound] |  |  |  |  |  | blocked NaV1.5 | 21 µM and 21.2 µM | comparable to the maximal effect of tetracaine |  |  |  |  |  |  |  | 
COc1ccc(SCCCNC(=O)/C=C/c2ccc(O)c(O)c2)cc1 [Compound 2, (E)-3-(3,4-Dihydroxyphenyl)-N-(3-((4-methoxyphenyl)thio)propyl)acrylamide] | RyR2 activators | 96.5 ± 0.4% | significant activation of SERCA2a ATPase | 109.2 ± 3.6% | 89.7 ± 1.1% |  | 11 µM |  | < 1 ×10⁻⁶ cm/s | 161.5 ± 9.5% |  |  |  |  |  | 
COc1ccc2c(c1)CN(C/C=C/C(=O)NNC(=O)/C=C/c1ccc(O)c(O)c1)CCS2 [Compound 3, (E)-N′-((E)-3-(3,4-Dihydroxyphenyl)acryloyl)-4-(7-methoxy-2,3-dihydrobenzo[1,4-f]thiazepin-4(5H)-yl)but-2-enehydrazide] | significantly increased [Ca^2+]ER | 101.7 ± 0.3% | did not evoke a significant increase in ATPase activity | 100.6 ± 2.5% | 94.8 ± 2.1% |  | > 3 µM |  | 3.4 ×10⁻⁶ cm/s | 135.4 ± 3.8% |  |  |  |  |  | 
COc1ccc2c(c1)CN(CCCCNC(=O)C(=O)NCCCCCCNC(=O)/C=C/c1ccc(O)c(O)c1)CCS2 [Compound 4] | significantly increased [Ca^2+]ER | 102.2 ± 0.6% | significant activation of SERCA2a ATPase | 110.8 ± 4.5% | 108.0 ± 1.6% |  | 1.4 µM | small but significant activating effect | 2.7 ×10⁻⁶ cm/s | 140.3 ± 6.4% |  |  |  |  |  | 
COc1ccc2c(c1)CN(CCCCCCNC(=O)/C=C/c1ccc(O)c(O)c1)CCS2 [Compound 6] | did not affect the RyR2 activity | 99.4 ± 0.4% |  | 112.3 ± 3.5% | 88.8 ± 0.9% |  | 3.1 µM |  | 0.9 ×10⁻⁶ cm/s | 235.4 ± 8.5% |  |  |  |  |  | 
COc1ccc2c(c1)CN(CCCCCCCCNC(=O)/C=C/c1ccc(O)c(O)c1)CCS2 [Compound 7] |  | 100.1 ± 1.7% |  | 109.8 ± 2.9% | 87.4 ± 1.1% | bell-shaped behavior | 1.9 µM |  | 0.9 ×10⁻⁶ cm/s | 175.3 ± 7.2% | activating effect | inhibitory effect |  |  |  | 
COc1ccc2c(c1)CN(CCCCCCNC(=O)/C=C/c1ccc(O)c(O)c1)CCO2 [Compound 8] | RyR2 activators | 95.0 ± 1.2% |  | 110.5 ± 3.5% | 96.6 ± 3.6% |  | 7.6 µM |  | 1.1 ×10⁻⁶ cm/s | 158.1 ± 2.4% |  |  |  |  |  | 
COc1ccc2c(c1)CN(CCCCCCCCNC/C=C/c1ccc(O)c(O)c1)CCO2 [Compound 10] | significantly increased [Ca^2+]ER | 102.1 ± 0.4% |  | 112.3 ± 4.6% | 103.0 ± 1.4% | no effect on NaV1.5 | 47.6 µM |  | 0.2 ×10⁻⁶ cm/s | 126.4 ± 13.0% |  |  |  |  |  | 
COc1ccc2c(c1)CN(CCCC[NH+]([BH2-]C#N)C/C=C/c1ccc(O)c(O)c1)CCS2 (centres unmarked) [Compound 11] | did not affect the RyR2 activity | 100.8 ± 0.7% |  | 115.7 ± 4.0% | 83.8 ± 1.7% |  | 13.6 µM |  | 2.6 ×10⁻⁶ cm/s | 267.3 ± 11.7% |  |  | 2.5 fold | up to 450% | 7.52 and 7.53 | 
O=C1CN(/N=C/c2ccc(-c3ccc([N+](=O)[O-])cc3)o2)C(O)=N1 [dantrolene, reference compound] | increase in R-CEPIA1er fluorescence |  |  |  |  |  |  |  |  |  |  |  |  |  |  | 
CCCCNc1ccc(C(=O)OCCN(C)C)cc1 [tetracaine, reference compound] |  |  |  |  |  |  |  |  |  |  |  |  |  |  |  | 100 µM
